{"source": "the supplement of paper PMC10307832", "experiment_in_all_cases": "relative viability (nuclei count vs DMSO), 5 days (fraction); higher = more cells survive", "key": {"[1]": {"system": "NCI-H2347", "in_short": "(§1)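 One day after seeding in 1536-well plates, lung cancer cell lines were dosed by pin tool. Dosing was either single-drug or a fixed anchor-drug dose plus five library-drug doses (not always all listed) in √10 steps. After 5 days, nuclei were stained in one fix-and-stain step and counted on 4× images, and relative viability is the nuclei count of treated wells over that of vehicle wells, given as the median of duplicate plates.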"}, "[2]": {"system": "NCI-H661", "in_short": "as §1"}, "[3]": {"system": "NCI-H727", "in_short": "as §1"}, "[4]": {"system": "NCI-H2126", "in_short": "as §1"}, "[5]": {"system": "NCI-H322M", "in_short": "as §1"}, "[6]": {"system": "PC-14", "in_short": "as §1"}, "[7]": {"system": "EMC-BAC-2", "in_short": "as §1"}, "[8]": {"system": "EPLC-272H", "in_short": "as §1"}, "[9]": {"system": "NCI-H2023", "in_short": "as §1"}, "[10]": {"system": "NCI-H1993", "in_short": "as §1"}, "[11]": {"system": "SW 1573", "in_short": "as §1"}, "[12]": {"system": "NCI-H2085", "in_short": "as §1"}, "[13]": {"system": "NCI-H1563", "in_short": "as §1"}, "[14]": {"system": "LCLC-97TM1", "in_short": "as §1"}, "[15]": {"system": "NCI-H647", "in_short": "as §1"}, "[16]": {"system": "NCI-H1734", "in_short": "as §1"}, "[17]": {"system": "NCI-H1915", "in_short": "as §1"}, "[18]": {"system": "NCI-H2009", "in_short": "as §1"}, "[19]": {"system": "LXF-289", "in_short": "as §1"}, "[20]": {"system": "HOP-62", "in_short": "as §1"}, "[21]": {"system": "H3255", "in_short": "as §1"}, "[22]": {"system": "SK-LU-1", "in_short": "as §1"}}, "data": [{"smiles": "CCN(CC)CCCCNc1ncc2cc(-c3cc(OC)cc(OC)c3)c(NC(=O)NC(C)(C)C)nc2n1", "note": "+ N=C(N)NC(=N)NCCc1ccccc1 [Phenformin] (partner 250 µM)", "values": [{"measurement": "relative viability", "setting": "[1]; first compound 0.01 µM", "result": 0.381}, {"measurement": "relative viability", "setting": "[1]; first compound 0.03162 µM", "result": 0.24}, {"measurement": "relative viability", "setting": "[1]; first compound 0.1 µM", "result": 0.278}, {"measurement": "relative viability", "setting": "[1]; first compound 0.3162 µM", "result": 0.505}, {"measurement": "relative viability", "setting": "[1]; first compound 1 µM", "result": 0.379}, {"measurement": "relative viability", "setting": "[2]; first compound 0.01 µM", "result": 0.289}, {"measurement": "relative viability", "setting": "[2]; first compound 0.03162 µM", "result": 0.297}, {"measurement": "relative viability", "setting": "[2]; first compound 0.1 µM", "result": 0.27}, {"measurement": "relative viability", "setting": "[2]; first compound 0.3162 µM", "result": 0.291}, {"measurement": "relative viability", "setting": "[2]; first compound 1 µM", "result": 0.278}, {"measurement": "relative viability", "setting": "[3]; first compound 0.01 µM", "result": 0.509}, {"measurement": "relative viability", "setting": "[3]; first compound 0.03162 µM", "result": 0.49}, {"measurement": "relative viability", "setting": "[3]; first compound 0.1 µM", "result": 0.547}, {"measurement": "relative viability", "setting": "[3]; first compound 0.3162 µM", "result": 0.728}, {"measurement": "relative viability", "setting": "[3]; first compound 1 µM", "result": 0.632}, {"measurement": "relative viability", "setting": "[4]; first compound 0.01 µM", "result": 0.496}, {"measurement": "relative viability", "setting": "[4]; first compound 0.03162 µM", "result": 0.52}, {"measurement": "relative viability", "setting": "[4]; first compound 0.1 µM", "result": 0.551}, {"measurement": "relative viability", "setting": "[4]; first compound 0.3162 µM", "result": 0.623}, {"measurement": "relative viability", "setting": "[4]; first compound 1 µM", "result": 0.515}, {"measurement": "relative viability", "setting": "[5]; first compound 0.01 µM", "result": 0.77}, {"measurement": "relative viability", "setting": "[5]; first compound 0.03162 µM", "result": 0.779}, {"measurement": "relative viability", "setting": "[5]; first compound 0.1 µM", "result": 0.791}, {"measurement": "relative viability", "setting": "[5]; first compound 0.3162 µM", "result": 0.784}, {"measurement": "relative viability", "setting": "[5]; first compound 1 µM", "result": 0.668}, {"measurement": "relative viability", "setting": "[6]; first compound 0.01 µM", "result": 0.439}, {"measurement": "relative viability", "setting": "[6]; first compound 0.03162 µM", "result": 0.426}, {"measurement": "relative viability", "setting": "[6]; first compound 0.1 µM", "result": 0.661}, {"measurement": "relative viability", "setting": "[6]; first compound 0.3162 µM", "result": 0.87}, {"measurement": "relative viability", "setting": "[6]; first compound 1 µM", "result": 0.387}, {"measurement": "relative viability", "setting": "[7]; first compound 0.01 µM", "result": 0.525}, {"measurement": "relative viability", "setting": "[7]; first compound 0.03162 µM", "result": 0.586}, {"measurement": "relative viability", "setting": "[7]; first compound 0.1 µM", "result": 0.562}, {"measurement": "relative viability", "setting": "[7]; first compound 0.3162 µM", "result": 0.592}, {"measurement": "relative viability", "setting": "[7]; first compound 1 µM", "result": 0.418}, {"measurement": "relative viability", "setting": "[8]; first compound 0.01 µM", "result": 0.324}, {"measurement": "relative viability", "setting": "[8]; first compound 0.03162 µM", "result": 0.3}, {"measurement": "relative viability", "setting": "[8]; first compound 0.1 µM", "result": 0.236}, {"measurement": "relative viability", "setting": "[8]; first compound 0.3162 µM", "result": 0.296}, {"measurement": "relative viability", "setting": "[8]; first compound 1 µM", "result": 0.288}, {"measurement": "relative viability", "setting": "[9]; first compound 0.01 µM", "result": 0.415}, {"measurement": "relative viability", "setting": "[9]; first compound 0.03162 µM", "result": 0.43}, {"measurement": "relative viability", "setting": "[9]; first compound 0.1 µM", "result": 0.5}, {"measurement": "relative viability", "setting": "[9]; first compound 0.3162 µM", "result": 0.432}, {"measurement": "relative viability", "setting": "[9]; first compound 1 µM", "result": 0.4}, {"measurement": "relative viability", "setting": "[10]; first compound 0.01 µM", "result": 0.501}, {"measurement": "relative viability", "setting": "[10]; first compound 0.03162 µM", "result": 0.512}, {"measurement": "relative viability", "setting": "[10]; first compound 0.1 µM", "result": 0.554}, {"measurement": "relative viability", "setting": "[10]; first compound 0.3162 µM", "result": 0.492}, {"measurement": "relative viability", "setting": "[10]; first compound 1 µM", "result": 0.514}, {"measurement": "relative viability", "setting": "[11]; first compound 0.01 µM", "result": 0.351}, {"measurement": "relative viability", "setting": "[11]; first compound 0.03162 µM", "result": 0.372}, {"measurement": "relative viability", "setting": "[11]; first compound 0.1 µM", "result": 0.394}, {"measurement": "relative viability", "setting": "[11]; first compound 0.3162 µM", "result": 0.36}, {"measurement": "relative viability", "setting": "[11]; first compound 1 µM", "result": 0.36}, {"measurement": "relative viability", "setting": "[12]; first compound 0.01 µM", "result": 0.735}, {"measurement": "relative viability", "setting": "[12]; first compound 0.03162 µM", "result": 0.661}, {"measurement": "relative viability", "setting": "[12]; first compound 0.1 µM", "result": 0.76}, {"measurement": "relative viability", "setting": "[12]; first compound 0.3162 µM", "result": 0.808}, {"measurement": "relative viability", "setting": "[12]; first compound 1 µM", "result": 0.779}, {"measurement": "relative viability", "setting": "[13]; first compound 0.01 µM", "result": 0.662}, {"measurement": "relative viability", "setting": "[13]; first compound 0.03162 µM", "result": 0.66}, {"measurement": "relative viability", "setting": "[13]; first compound 0.1 µM", "result": 0.689}, {"measurement": "relative viability", "setting": "[13]; first compound 0.3162 µM", "result": 0.582}, {"measurement": "relative viability", "setting": "[13]; first compound 1 µM", "result": 0.549}, {"measurement": "relative viability", "setting": "[14]; first compound 0.01 µM", "result": 0.465}, {"measurement": "relative viability", "setting": "[14]; first compound 0.03162 µM", "result": 0.42}, {"measurement": "relative viability", "setting": "[14]; first compound 0.1 µM", "result": 0.514}, {"measurement": "relative viability", "setting": "[14]; first compound 0.3162 µM", "result": 0.428}, {"measurement": "relative viability", "setting": "[14]; first compound 1 µM", "result": 0.506}, {"measurement": "relative viability", "setting": "[15]; first compound 0.01 µM", "result": 0.451}, {"measurement": "relative viability", "setting": "[15]; first compound 0.03162 µM", "result": 0.59}, {"measurement": "relative viability", "setting": "[15]; first compound 0.1 µM", "result": 0.556}, {"measurement": "relative viability", "setting": "[15]; first compound 0.3162 µM", "result": 0.804}, {"measurement": "relative viability", "setting": "[15]; first compound 1 µM", "result": 0.239}, {"measurement": "relative viability", "setting": "[16]; first compound 0.01 µM", "result": 0.356}, {"measurement": "relative viability", "setting": "[16]; first compound 0.03162 µM", "result": 0.363}, {"measurement": "relative viability", "setting": "[16]; first compound 0.1 µM", "result": 0.384}, {"measurement": "relative viability", "setting": "[16]; first compound 0.3162 µM", "result": 0.364}, {"measurement": "relative viability", "setting": "[16]; first compound 1 µM", "result": 0.354}, {"measurement": "relative viability", "setting": "[17]; first compound 0.01 µM", "result": 0.376}, {"measurement": "relative viability", "setting": "[17]; first compound 0.03162 µM", "result": 0.377}, {"measurement": "relative viability", "setting": "[17]; first compound 0.1 µM", "result": 0.365}, {"measurement": "relative viability", "setting": "[17]; first compound 0.3162 µM", "result": 0.373}, {"measurement": "relative viability", "setting": "[17]; first compound 1 µM", "result": 0.337}, {"measurement": "relative viability", "setting": "[18]; first compound 0.01 µM", "result": 0.471}, {"measurement": "relative viability", "setting": "[18]; first compound 0.03162 µM", "result": 0.462}, {"measurement": "relative viability", "setting": "[18]; first compound 0.1 µM", "result": 0.451}, {"measurement": "relative viability", "setting": "[18]; first compound 0.3162 µM", "result": 0.456}, {"measurement": "relative viability", "setting": "[18]; first compound 1 µM", "result": 0.357}, {"measurement": "relative viability", "setting": "[19]; first compound 0.01 µM", "result": 0.506}, {"measurement": "relative viability", "setting": "[19]; first compound 0.03162 µM", "result": 0.542}, {"measurement": "relative viability", "setting": "[19]; first compound 0.1 µM", "result": 0.547}, {"measurement": "relative viability", "setting": "[19]; first compound 0.3162 µM", "result": 0.53}, {"measurement": "relative viability", "setting": "[19]; first compound 1 µM", "result": 0.424}, {"measurement": "relative viability", "setting": "[20]; first compound 0.01 µM", "result": 0.81}, {"measurement": "relative viability", "setting": "[20]; first compound 0.03162 µM", "result": 0.847}, {"measurement": "relative viability", "setting": "[20]; first compound 0.1 µM", "result": 0.604}, {"measurement": "relative viability", "setting": "[20]; first compound 0.3162 µM", "result": 0.752}, {"measurement": "relative viability", "setting": "[20]; first compound 1 µM", "result": 0.654}, {"measurement": "relative viability", "setting": "[21]; first compound 0.01 µM", "result": 0.347}, {"measurement": "relative viability", "setting": "[21]; first compound 0.03162 µM", "result": 0.336}, {"measurement": "relative viability", "setting": "[21]; first compound 0.1 µM", "result": 0.27}, {"measurement": "relative viability", "setting": "[21]; first compound 0.3162 µM", "result": 0.408}, {"measurement": "relative viability", "setting": "[21]; first compound 1 µM", "result": 0.356}, {"measurement": "relative viability", "setting": "[22]; first compound 0.01 µM", "result": 0.661}, {"measurement": "relative viability", "setting": "[22]; first compound 0.03162 µM", "result": 0.551}, {"measurement": "relative viability", "setting": "[22]; first compound 0.1 µM", "result": 0.681}, {"measurement": "relative viability", "setting": "[22]; first compound 0.3162 µM", "result": 0.586}, {"measurement": "relative viability", "setting": "[22]; first compound 1 µM", "result": 0.285}]}]}
